The results in this text go back to ChEMBL document CHEMBL3632520, “Correlation of antioxidant activities with theoretical studies for new hydrazone compounds bearing a 3,4,5-trimethoxy benzyl moiety” (Eur J Med Chem, 2015).

Common to all, as to format: physicochemical
A short description of data set [1]: Antioxidant activity assessed as DPPH radical scavenging activity measured as discoloration incubated for 30 mins in dark. (In general: Loss of DPPH colour is used to gauge radical scavenging.)
Data set [2] can be described thus: Antioxidant activity assessed as DPPH radical scavenging activity measured as discoloration incubated for 30 mins in dark relative to control. Conditions: 0.5 h.
Data set [3] is described as follows: Antioxidant activity assessed as ferric ion reducing activity using fe3+-TPTZ assessed as fe2+-TPTZ formation after 30 mins by FRAP assay. Conditions: 0.5 h.

In brackets after ≈: the same amount, converted by molar mass.

In the case of `CCOC(=O)c1ccc(OCc2cc(OC)c(OC)c(OC)c2)cc1`, the 50% inhibitory concentration (IC50) in data set [1] is > 100 µg/mL. In data set [2], the “inhibition (INH)” value is 10.8%. The Activity in data set [3] stood at 27 µM.

On to `COc1cc(COc2ccc(C(=O)NN)cc2)cc(OC)c1OC`, for which the IC50 in data set [1] stood at 264 µg/mL (≈ 794 µM). Moreover, in data set [2], the “inhibition (INH)” value came out at 37.2%. Moreover, the Activity in data set [3] is 3515 µM.

As for `COc1cc(COc2ccc(C(=O)N/N=C/c3cc(Br)cc(Cl)c3O)cc2)cc(OC)c1OC`, the IC50 in data set [1] is > 100 µg/mL. Besides, the “inhibition (INH)” value in data set [2] came out at 15.6%. Moreover, in data set [3], the Activity turned out to be 125 µM.

Consider `COc1cc(COc2ccc(C(=O)N/N=C/c3cc(C(C)(C)C)c(O)c(C(C)(C)C)c3)cc2)cc(OC)c1OC`, for which, in data set [1], the IC50 was found to be 62 µg/mL (≈ 113 µM). Besides, the “inhibition (INH)” value in data set [2] came out at 75.3%. Also, the Activity in data set [3] was found to be 1096 µM.

Turning to `COc1cc(/C=N/NC(=O)c2ccc(OCc3cc(OC)c(OC)c(OC)c3)cc2)cc(OC)c1O`, in data set [1], the IC50 stood at 75 µg/mL (≈ 151 µM). Moreover, the “inhibition (INH)” value in data set [2] is recorded as 57.9%. The Activity in data set [3] is 2087 µM.

As for `CCOc1cc(/C=N/NC(=O)c2ccc(OCc3cc(OC)c(OC)c(OC)c3)cc2)ccc1O`, in data set [1], the IC50 is 106 µg/mL (≈ 221 µM). The “inhibition (INH)” value in data set [2] was found to be 53.3%. Moreover, the Activity in data set [3] is 1844 µM.

`COc1cc(COc2ccc(C(=O)N/N=C/c3ccc(OC)c(OC)c3OC)cc2)cc(OC)c1OC`: the concentration for half-maximal inhibition (IC50) in data set [1] is > 100 µg/mL. The “inhibition (INH)” value in data set [2] came out at 10.4%. Besides, in data set [3], the Activity was 1609 µM.

As to `COc1cc(/C=N/NC(=O)c2ccc(OCc3cc(OC)c(OC)c(OC)c3)cc2)cc(OC)c1OC`, in data set [1], the half-inhibitory concentration (IC50) is > 100 µg/mL. For the same molecule, in data set [2], the “inhibition (INH)” value is recorded as 10.4%. For the same molecule, the Activity in data set [3] turned out to be 1365 µM.

As to `COc1cc(COc2ccc(C(=O)N/N=C/c3cccc(O)c3)cc2)cc(OC)c1OC`, in data set [1], the half-inhibitory concentration (IC50) is > 100 µg/mL. Besides, the “inhibition (INH)” value in data set [2] stood at 9.3%. Further, in data set [3], the Activity turned out to be 1819 µM.

As for `COc1cc(COc2ccc(C(=O)N/N=C/c3ccccc3O)cc2)cc(OC)c1OC`, the concentration for half-maximal inhibition (IC50) in data set [1] was > 100 µg/mL. Further, the “inhibition (INH)” value in data set [2] is 9.6%. Also, in data set [3], the Activity was found to be 26 µM.

As for `COc1cc(COc2ccc(C(=O)N/N=C/c3ccc(O)cc3)cc2)cc(OC)c1OC`, the IC50 in data set [1] was > 100 µg/mL. Further, the “inhibition (INH)” value in data set [2] was 18.7%. The Activity in data set [3] came out at 3056 µM.

As to `O=C1O[C@H]([C@@H](O)CO)C(O)=C1O` [ASCORBIC ACID], the concentration for half-maximal inhibition (IC50) in data set [1] worked out at 40 µg/mL (≈ 227 µM). Further, the “inhibition (INH)” value in data set [2] was 90.6%. In addition, in data set [3], the Activity stood at 2562 µM.

Turning to `Cc1cc(C(C)(C)C)c(O)c(C(C)(C)C)c1` [BUTYLATED HYDROXYTOLUENE], the IC50 in data set [1] turned out to be 99.7 µg/mL (≈ 452 µM). In data set [2], the “inhibition (INH)” value amounted to 54.8%. Moreover, the Activity in data set [3] stood at 2837 µM.

Usually IC50 stands for the point on the concentration scale where inhibition reaches its midpoint.
